{
  "source": "patent US9603922B2",
  "about": "“Modulation of NKT cell activity with antigen-loaded CD1d molecules” (VACCINEX, INC., priority 2007, dated 2017)",
  "molecules": {"B1": {"name": "αGalCer/sCD1d: soluble monomeric mouse β2m-CD1d, His-tagged, loaded with αGalCer (protein)", "chain": "IQKTPQIQVYSRHPPENGKPNILNCYVTQFHPPHIEIQMLKNGKKIPKVEMSDMSFSKDWSFYILAHTEFTPTETDTYACRVKHASMAEPKTVYWDRDMGGGGSGGSGSGGGSEAQQKNYTFRCLQMSSFANRSWSRTDSVVWLGDLQTHRWSNDSATISFTKPWSQGKLSNQQWEKLQHMFQVYRVSFTRDIQELVKMMSPKEDYPIEIQLSAGCEMYPGNASESFLHVAFQGKYVVRFWGTSWQTVPGAPSWLDLPIKVLNADQGTSATVQMLLNDTCPLFVRGLLEAGKSDLEKQEKPVAWLSSVPSSADGHRQLVCHVSGFYPKPVWVMWMRGDQEQQGTHRGDFLPNADETWYLQATLDVEAGEEAGLACRVKHSSLGGQDIILYWSSGSGGHHHHHH"}},
  "key": {"[1]": {"tested_on": "liver and spleen iNKT cells", "assay": "Intracellular cytokine staining of liver and spleen NKT cells after repeated i.v. injections", "parameters": "species or system mouse", "conditions": "after 5 to 6 i.v. injections every three days; ex vivo and in vitro rechallenge", "description": "FIG. 2: a Sustained IFNγ production by liver and spleen iNKT cells after several injections of CD1d/anti-HER2 fusion. Liver and spleen lymphocytes were isolated 20 minutes after the sixth injection of either PBS (control, white bar), αGalCer 0.4 μg (grey bar), or αGalCer/CD1d-anti-HER2 fusion protein 40 μg (black bar) and cultured for 1 hour in presence of GOLGI PLUG™ reagent. NKT cells were then stained with anti NK1.1-PE and anti CD3-FITC antibodies, fixed and stained for intracellular IFNγ with anti IFNγ-APC. […] Liver lymphocytes were isolated after 5 injections i.v. of either PBS (Control), αGalCer, αGalCer/CD1d-anti-HER2 fusion protein (Fusion) or αGalCer/sCD1d (sCD1d) and stimulated in vitro for 6 hours in presence of GOLGI PLUG™ as indicated. […]\nIsolation of liver, lung and spleen lymphocytes. […] After two washings, cells were either re-challenged or directly analyzed by fluorescence cytometry. […]\nSustained production of IFNγ after repeated i.v. injections: cytokine production was tested by IntraCellular Cytokine Staining (ICCS). […] After fixation and permeabilization with CYTOFIX/CYTOPERM™ (BD), intracellular IFNγ was detected with an APC-labeled anti-IFNγ monoclonal antibody. Cells were analyzed by flow cytometry on a FACS Calibur ([…]™ Software; BD). […]"}, "[2]": {"tested_on": "splenocytes, CD11c+ CD40+ DC", "assay": "DC maturation (CD11c+ CD40+) in splenocyte cultures of treated mice", "format": "cell-based, mouse", "conditions": "in vitro stimulation of splenocytes isolated after systemic treatment", "text": "(§1) Cells were stained with anti NK1.1-PE and anti CD3-FITC and analysed by flow cytometry. NK cells are reported as NK1.1 positive/CD3 negative population. b c Induction of DC maturation and T cell proliferation by αGalCer/sCD1d activated NKT cells in vivo. Splenocytes were isolated after five treatments i.v. with either PBS (control), αGalCer, or αGalCer/sCD1d and cultured for 4 days with GM-CSF and then 3 more days with either PBS (control, white bars), αGalCer (grey bars), or αGalCer/sCD1d (sCD1d, black bars). Cells were then stained with anti CD11c-FITC and biotinylated anti CD40 and Streptavidin-PE to detect double positive mature DCs (c), or with anti NK1.1-PE and anti CD3-FITC to detect CD3 single positive T cells (d) by flow cytometry.\n(§2) In absence of a specific antigen: Several reports have described the capacity of iNKT cells to transactivate NK, DC and T cells upon activation with free αGalCer or αGalCer-pulsed dendritic cells (Nieda, M., et al. Blood 103:383-389 (2004); Hermans, I. F., et al. J Immunol 171:5140-5147 (2003); Smyth, M. J., et al. J Exp Med 201:1973-1985 (2005)). […] Markers for DC maturation were also analyzed after 5 days in vitro culture of splenocytes isolated at the end of a systemic treatment, as described in Example 1. […]"}, "[3]": {"tested_on": "liver NK cells", "assay": "Transactivation of NK cells: liver NK1.1+ CD3- cells after single injection", "format": "in vivo, mouse", "conditions": "20 hours after single i.p. injection", "text": "as §1, §2"}},
  "data": [
    {"molecule": "CCCCCCCCCCCCCCCCCCCCCCCCCC(=O)N[C@@H](CO[C@H]1O[C@H](CO)[C@H](O)[C@H](O)[C@H]1O)[C@H](O)[C@H](O)CCCCCCCCCCCCCC", "note": "[αGalCer, α-galactosylceramide, reference compound]", "values": [
      {"measurement": "IFNγ production by iNKT cells", "setting": "[1]", "result": "only active in naïve (PBS control) mice and has no more effect in αGalCer-treated mice"},
      {"measurement": "Percentage of CD11c+ CD40+ double positive cells", "setting": "[2]", "result": "had no effect in any of the mice"},
      {"measurement": "NK cell frequency (NK1.1+ CD3- population)", "setting": "[3]", "result": "increased"}
    ]},
    {"molecule": "B1", "values": [
      {"measurement": "IFNγ production by iNKT cells", "setting": "[1]", "result": "stimulate iNKT to produce IFNγ following repeated in vivo stimulation with the same material"},
      {"measurement": "Percentage of CD11c+ CD40+ double positive cells", "setting": "[2]", "result": "increased"},
      {"measurement": "NK cell frequency (NK1.1+ CD3- population)", "setting": "[3]", "result": "increased"}
    ]}
  ]
}
